Here are results for 10 compounds from paper PMC12442009, “Self-Assembling Cyclic Peptide Nanotubes for the Delivery of Doxorubicin into Drug-Resistant Cancer Cells” (ACS Applied Materials & Interfaces, 2025).

Structures are written as SMILES. Read-outs that look alike come from different tables or passages of the source. Square brackets hold non-standard residues; d marks the D form. Peptide text beside a SMILES is read from it. * marks the point of attachment. X1 = COc1cccc2c1C(=O)c1c(O)c3c(c(O)c1C2=O)C[C@@](O)(C(CO)=NNC(=O)CCCCCN1C(=O)CC(*)C1=O)C[C@@H]3O[C@H]1C[C@H](N)[C@H](O)[C@H](C)O1; Pra = C#CC[C@H](N)C(=O)O

Data set [1] deals with NCI-H460 (lung cancer cell line). The note with it: for E max (% inhibition): inhibition at highest concentration tested (100 μM).
Experimental: (§1) The cell growth inhibition of each compound was evaluated using the MTT (3-[4,5-dimethylthiazol-2-yl]-2,5-diphenyltetrazolium bromide) assay. MCF-7 and MRC-5 cells were grown on a Minimum Essential Medium Eagle, while NCI-H460 and NCI/ADR-RES cells were grown on RPMI 1640 culture medium. All culture mediums were supplemented with 10% FBS (fetal bovine serum) and 1% penicillin-streptomycin-glutamine mix. […] MCF-7 (100,000 cells/mL), NCI-H460 (150,000 cells/mL), NCI/ADR-RES (150,000 cells/mL), or MRC-5 (100,000 cells/mL) cells were seeded the day before in sterile 96-well plates (100 μL/well). Then, cells were incubated with each concentration of the compound (100 μL/well) for the specified time for each cell line. The compounds were previously dissolved in DMSO and diluted at the time of the experiment with complete medium to the concentration to be tested. The DMSO content of each well was maintained at less than 1%. All concentrations were carried out with triplicate points, and controls with DMSO at the same proportion in which the compounds were dissolved were included in all experiments. After the incubation time, the samples were removed, and 100 μL of complete medium with 0.5 mg/mL MTT was added to each well. Cells were incubated for 4 h, and the medium was removed. The resulting formazan crystals were dissolved in DMSO (100 μL/well). The absorbance of each well at 595 nm was acquired with a Tecan Infinite F200Pro plate reader. A blank subtraction was performed (cells treated with Triton X-100), and the data were normalized to the value of the untreated cells (100% viability). Data were analyzed with GraphPad Prism software.
The subject of data set [2] is MCF-7 (breast cancer cell line). The experiment in a line: MTT cell growth inhibition, MCF-7. To be noted: for E max (% inhibition): inhibition at highest concentration tested (100 μM), triplicate points. The class given is cell-based.
Experimental: as §1
Data set [3] deals with NCI/ADR-RES (doxorubicin-resistant ovarian cancer cell line). Put plainly: MTT cell growth inhibition, NCI/ADR-RES. The class given is cell-based. To be noted: for E max (% inhibition): inhibition at highest concentration tested (100 μM).
Experimental: as §1
For a further data set, the system named is NCI/ADR-RES cells. Put plainly: Confocal microscopy internalization and colocalization. The note with it: 50 μM, 2 h.
Data set [4] is described as follows: Hydrazone stability / DOX release followed by mass spectrometry. The class given is physicochemical. To be noted: 200 μM.
Setting [5] is: NCI/ADR-RES, 48 h incubation, MTT.
Where [6] appears, read: NCI/ADR-RES, 72 h incubation, MTT, calculated only if E max > 50%, read-out: IC50.
Setting [7] is: NCI/ADR-RES, 72 h incubation, MTT.
The mark [8] stands for this setting: NCI-H460, 48 h incubation, MTT, calculated only if E max > 50%.
Where [9] appears, read: NCI/ADR-RES, 48 h incubation, MTT, calculated only if E max > 50%, read-out: IC50.
Setting [10] is: MCF-7, 96 h incubation, MTT, 50% growth inhibition, calculated only if E max > 50%, read-out: IC50.

On to `C#CC[C@@H]1NC(=O)[C@@H](Cc2c[nH]c3ccccc23)NC(=O)[C@H](CO)NC(=O)[C@@H](CS)NC(=O)[C@H](CO)NC(=O)[C@@H](CCCNC(=N)N)NC(=O)[C@H](CCC(N)=O)NC(=O)[C@@H](CCCCN)NC1=O` [CP2] (cyclo([Pra][dK]Q[dR]S[dC]S[dW])), for which the “E max (% inhibition)” value in data set [1] (NCI-H460, 48 h incubation, MTT) is listed as 8 ± 1 % inhibition; in data set [2] (MCF-7, 96 h incubation, MTT), 48 ± 1 % inhibition.

In the case of `CCCCCCCCCCCCCCn1cc(C[C@@H]2NC(=O)[C@@H](Cc3c[nH]c4ccccc34)NC(=O)[C@H](CO)NC(=O)[C@@H](CSC3CC(=O)N(CCCCCC(=O)NN=C(CO)[C@]4(O)Cc5c(O)c6c(c(O)c5[C@@H](O[C@H]5C[C@H](N)[C@H](O)[C@H](C)O5)C4)C(=O)c4c(OC)cccc4C6=O)C3=O)NC(=O)[C@H](CO)NC(=O)[C@@H](CCCNC(=N)N)NC(=O)[C@H](CCC(N)=O)NC(=O)[C@@H](CCCCN)NC2=O)nn1` (stereo partly shown) [CP2T14-DOX], the “E max (% inhibition)” value in data set [3] (setting [5]) is 39 ± 9 % inhibition; in data set [3] (setting [7]) it was 51 ± 4 % inhibition; in data set [3] (NCI/ADR-RES, 72 h incubation, MTT, listed as CP2T 14 -DOX) it was “good activity”. Further, the IC50 (commonly the midpoint of a concentration-inhibition curve) in data set [3] (setting [6]) is 8.2 ± 0.8 µM.

Regarding `CCCCCCCCCCn1cc(C[C@@H]2NC(=O)[C@@H](Cc3c[nH]c4ccccc34)NC(=O)[C@H](CO)NC(=O)[C@@H](CCCCN)NC(=O)[C@H](CO)NC(=O)[C@@H](CSC3CC(=O)N(CCCCCC(=O)NN=C(CO)[C@]4(O)Cc5c(O)c6c(c(O)c5[C@@H](O[C@H]5C[C@H](N)[C@H](O)[C@H](C)O5)C4)C(=O)c4c(OC)cccc4C6=O)C3=O)NC(=O)[C@H](CCC(N)=O)NC(=O)[C@@H](CCCCN)NC2=O)nn1` (stereo partly shown) [CP1T10-DOX], the IC50 in data set [1] (setting [8]) was 3.1 ± 0.1 µM; in data set [3] (setting [9]), 38.4 ± 0.7 µM; in data set [3] (setting [6]), 10.8 ± 1.7 µM; in data set [2] (setting [10]), 3.4 ± 0.4 µM. The “E max (% inhibition)” value in data set [1] (NCI-H460, 48 h incubation, MTT) turned out to be 93 ± 1 % inhibition; in data set [3] (setting [7]) it was 84 ± 3 % inhibition; in data set [2] (MCF-7, 96 h incubation, MTT), 89 ± 1 % inhibition. In the data set on NCI/ADR-RES cells, the “cell internalization / localization by confocal microscopy” value (“cell internalization / localization” for short) is “cells with a colored nucleus”. The “stability (DOX release) at pH 5.0” value in data set [4] (pH 5.0 (10 mM citrate buffer), followed over 72 h) is “the molecular ion corresponding to the drug is still very minor after this time”. Further, the “stability (DOX release) at physiological pH” value in data set [4] (pH 7.0 (H2O), 72 h) was “much more stable at physiological pH, with a small release of the drug after 72 h”.

Regarding `CCCCCCCCCCn1cc(C[C@@H]2NC(=O)[C@@H](Cc3c[nH]c4ccccc34)NC(=O)[C@H](CO)NC(=O)[C@@H](CSC3CC(=O)N(CCCCCC(=O)NN=C(CO)[C@]4(O)Cc5c(O)c6c(c(O)c5[C@@H](O[C@H]5C[C@H](N)[C@H](O)[C@H](C)O5)C4)C(=O)c4c(OC)cccc4C6=O)C3=O)NC(=O)[C@H](CO)NC(=O)[C@@H](CCCNC(=N)N)NC(=O)[C@H](CCC(N)=O)NC(=O)[C@@H](CCCCN)NC2=O)nn1` (stereo partly shown) [CP2T10-DOX], the IC50 was 1.7 ± 0.1 µM in data set [1] (setting [8]), 33.4 ± 0.3 µM in data set [3] (setting [9]), 21.8 ± 6.4 µM in data set [3] (setting [6]) and 2.6 ± 0.3 µM in data set [2] (setting [10]). Besides, the “E max (% inhibition)” value in data set [1] (NCI-H460, 48 h incubation, MTT) is on record as 93 ± 1 % inhibition; in data set [3] (setting [7]), 64 ± 7 % inhibition; in data set [2] (MCF-7, 96 h incubation, MTT), 88 ± 1 % inhibition. The “cell internalization / localization” value in the data set with NCI/ADR-RES cells was “cells with a colored nucleus”.

For `CCCCCCCCCCn1cc(C[C@@H]2NC(=O)[C@@H](Cc3c[nH]c4ccccc34)NC(=O)[C@H](CO)NC(=O)[C@@H](CS)NC(=O)[C@H](CO)NC(=O)[C@@H](CCCNC(=N)N)NC(=O)[C@H](CCC(N)=O)NC(=O)[C@@H](CCCCN)NC2=O)nn1` [CP2T10], the “E max (% inhibition)” value in data set [1] (NCI-H460, 48 h incubation, MTT) is on record as 80 ± 2 % inhibition; in data set [3] (setting [5]) it was 75 ± 2 % inhibition; in data set [2] (MCF-7, 96 h incubation, MTT) it was 63 ± 1 % inhibition. The IC50 amounted to 68.2 ± 4.6 µM in data set [3] (48 h) and 50.2 ± 0.6 µM in data set [2] (96 h).

With `CCCCCCCCCCCCCCn1cc(C[C@@H]2NC(=O)[C@@H](Cc3c[nH]c4ccccc34)NC(=O)[C@H](CO)NC(=O)[C@@H](CCCCN)NC(=O)[C@H](CO)NC(=O)[C@@H](CSC3CC(=O)N(CCCCCC(=O)NN=C(CO)[C@]4(O)Cc5c(O)c6c(c(O)c5[C@@H](O[C@H]5C[C@H](N)[C@H](O)[C@H](C)O5)C4)C(=O)c4c(OC)cccc4C6=O)C3=O)NC(=O)[C@H](CCC(N)=O)NC(=O)[C@@H](CCCCN)NC2=O)nn1` (stereo partly shown) [CP1T14-DOX], the “E max (% inhibition)” value in data set [3] (setting [5]) is reported as 44 ± 4 % inhibition. Moreover, the IC50 in data set [3] (setting [6]) was 5.7 ± 2.7 µM.

Take `C#CC[C@@H]1NC(=O)[C@@H](Cc2c[nH]c3ccccc23)NC(=O)[C@H](CO)NC(=O)[C@@H](CSC2CC(=O)N(CCCCCC(=O)NN=C(CO)[C@]3(O)Cc4c(O)c5c(c(O)c4[C@@H](O[C@H]4C[C@H](N)[C@H](O)[C@H](C)O4)C3)C(=O)c3c(OC)cccc3C5=O)C2=O)NC(=O)[C@H](CO)NC(=O)[C@@H](CCCNC(=N)N)NC(=O)[C@H](CCC(N)=O)NC(=O)[C@@H](CCCCN)NC1=O` (stereo partly shown) [CP2-DOX] (cyclo(Q[dR]S[dC](X1)S[dW][Pra][dK])): the IC50 in data set [1] (setting [8]) is 2.9 ± 0.3 µM; in data set [2] (setting [10]), 1.8 ± 0.2 µM. The “E max (% inhibition)” value was determined as 92 ± 1 % inhibition in data set [1] (NCI-H460, 48 h incubation, MTT); 13 ± 1 % inhibition in data set [3] (setting [7]); 80 ± 1 % inhibition in data set [2] (MCF-7, 96 h incubation, MTT). The “cell internalization / localization” value with NCI/ADR-RES cells is on record as “minimum cell internalization”.

Consider `N.N.[Cl][Pt][Cl]` [Cisplatin, cisplatin, reference compound], for which the IC50 in data set [1] (setting [8]) is 5.1 ± 0.6 µM; in data set [3] (setting [9]), 11.5 ± 0.6 µM; in data set [2] (setting [10]), 7.8 ± 0.6 µM. In addition, the “E max (% inhibition)” value in data set [1] (NCI-H460, 48 h incubation, MTT) amounted to 53 ± 1 % inhibition; in data set [3] (setting [5]) it was 90 ± 1 % inhibition; in data set [2] (MCF-7, 96 h incubation, MTT) it was 78 ± 1 % inhibition.

As to `CCCCCCCCCCn1cc(C[C@@H]2NC(=O)[C@@H](Cc3c[nH]c4ccccc34)NC(=O)[C@H](CO)NC(=O)[C@@H](CCCCN)NC(=O)[C@H](CO)NC(=O)[C@@H](CS)NC(=O)[C@H](CCC(N)=O)NC(=O)[C@@H](CCCCN)NC2=O)nn1` [CP1T10], the “E max (% inhibition)” value in data set [1] (NCI-H460, 48 h incubation, MTT) is 28 ± 1 % inhibition; in data set [3] (setting [5]), 70 ± 2 % inhibition; in data set [2] (MCF-7, 96 h incubation, MTT), 59 ± 1 % inhibition. For the same compound, the figures for the half-maximal inhibitory concentration (IC50) in data set [3] (setting [9]) and in data set [2] (setting [10]) were 68.9 ± 2.1 µM and 78.8 ± 0.1 µM, respectively.

For `C#CC[C@@H]1NC(=O)[C@@H](Cc2c[nH]c3ccccc23)NC(=O)[C@H](CO)NC(=O)[C@@H](CCCCN)NC(=O)[C@H](CO)NC(=O)[C@@H](CS)NC(=O)[C@H](CCC(N)=O)NC(=O)[C@@H](CCCCN)NC1=O` [CP1] (cyclo([Pra][dK]Q[dC]S[dK]S[dW])), the values for the IC50 in data set [1] (48 h), in data set [3] (48 h) and in data set [2] (96 h) were 37.9 ± 0.4 µM, 55.8 ± 0.7 µM and 17.7 ± 0.3 µM, respectively. Moreover, the “E max (% inhibition)” value in data set [3] (setting [5]) came to 90 ± 1 % inhibition.
